# Measurements from ChEMBL document CHEMBL2429768, “Eco-friendly synthesis and antimicrobial activities of substituted-5-(1H-indol-3-yl)methylene)-2,2-dimethyl-1,3-dioxane-4,6-dione derivatives” (2013).
# Tests used:
# Format in all cases: functional
# Klebsiella pneumoniae [1] = assay: Antibacterial activity against Klebsiella pneumoniae after 24 hrs by agar well diffusion method
# Aspergillus niger [2] = assay: Antifungal activity against Aspergillus niger at 300 ug/ml after 72 hrs by agar well diffusion method; conditions: read-out: DIZ
# Aspergillus niger [3] = assay: Antifungal activity against Aspergillus niger at 100 ug/ml after 72 hrs by agar well diffusion method; conditions: read-out: DIZ
# Klebsiella pneumoniae [4] = assay: Antibacterial activity against Klebsiella pneumoniae at 50 ug/ml after 24 hrs by agar well diffusion method; conditions: read-out: DIZ
# Aspergillus niger [5] = assay: Antifungal activity against Aspergillus niger after 72 hrs by agar well diffusion method
# Fusarium oxysporum [6] = assay: Antifungal activity against Fusarium oxysporum at 200 ug/ml after 72 hrs by agar well diffusion method; conditions: read-out: DIZ
# Klebsiella pneumoniae [7] = assay: Antibacterial activity against Klebsiella pneumoniae at 200 ug/ml after 24 hrs by agar well diffusion method; conditions: read-out: DIZ
# Staphylococcus aureus [8] = assay: Antibacterial activity against Staphylococcus aureus ATCC 6538 after 24 hrs by agar well diffusion method; conditions: ATCC 6538, 24 h
# Fusarium oxysporum [9] = assay: Antifungal activity against Fusarium oxysporum at 100 ug/ml after 72 hrs by agar well diffusion method; conditions: read-out: DIZ
# Staphylococcus aureus [10] = assay: Antibacterial activity against Staphylococcus aureus ATCC 6538 at 500 ug/ml after 24 hrs by agar well diffusion method; conditions: ATCC 6538, 24 h, read-out: DIZ
# Staphylococcus aureus [11] = assay: Antibacterial activity against Staphylococcus aureus ATCC 6538 at 50 ug/ml after 24 hrs by agar well diffusion method; conditions: ATCC 6538, 24 h, read-out: DIZ
# Klebsiella pneumoniae [12] = assay: Antibacterial activity against Klebsiella pneumoniae at 500 ug/ml after 24 hrs by agar well diffusion method; conditions: read-out: DIZ
# Staphylococcus aureus [13] = assay: Antibacterial activity against Staphylococcus aureus ATCC 6538 at 100 ug/ml after 24 hrs by agar well diffusion method; conditions: ATCC 6538, 24 h, read-out: DIZ
# Escherichia coli [14] = assay: Antibacterial activity against Escherichia coli ATCC 8739 at 50 ug/ml after 24 hrs by agar well diffusion method; conditions: ATCC 8739, 24 h, read-out: DIZ
# Bacillus subtilis [15] = assay: Antibacterial activity against Bacillus subtilis at 50 ug/ml after 24 hrs by agar well diffusion method; conditions: read-out: DIZ
# Fusarium oxysporum [16] = assay: Antifungal activity against Fusarium oxysporum after 72 hrs by agar well diffusion method
# Rhizoctonia solani [17] = assay: Antifungal activity against Rhizoctonia solani after 72 hrs by agar well diffusion method
# Escherichia coli [18] = assay: Antibacterial activity against Escherichia coli ATCC 8739 at 500 ug/ml after 24 hrs by agar well diffusion method; conditions: ATCC 8739, 24 h, read-out: DIZ
# Fusarium oxysporum [19] = assay: Antifungal activity against Fusarium oxysporum at 50 ug/ml after 72 hrs by agar well diffusion method; conditions: read-out: DIZ
# Klebsiella pneumoniae [20] = assay: Antibacterial activity against Klebsiella pneumoniae at 100 ug/ml after 24 hrs by agar well diffusion method; conditions: read-out: DIZ
# Bacillus subtilis [21] = assay: Antibacterial activity against Bacillus subtilis after 24 hrs by agar well diffusion method
# Rhizoctonia solani [22] = assay: Antifungal activity against Rhizoctonia solani at 100 ug/ml after 72 hrs by agar well diffusion method; conditions: read-out: DIZ
# Fusarium oxysporum [23] = assay: Antifungal activity against Fusarium oxysporum at 300 ug/ml after 72 hrs by agar well diffusion method; conditions: read-out: DIZ
# Aspergillus flavus [24] = assay: Antifungal activity against Aspergillus flavus at 200 ug/ml after 72 hrs by agar well diffusion method; conditions: read-out: DIZ
# Aspergillus niger [25] = assay: Antifungal activity against Aspergillus niger at 500 ug/ml after 72 hrs by agar well diffusion method; conditions: read-out: DIZ
# Escherichia coli [26] = assay: Antibacterial activity against Escherichia coli ATCC 8739 at 300 ug/ml after 24 hrs by agar well diffusion method; conditions: ATCC 8739, 24 h, read-out: DIZ
# Staphylococcus aureus [27] = assay: Antibacterial activity against Staphylococcus aureus ATCC 6538 at 200 ug/ml after 24 hrs by agar well diffusion method; conditions: ATCC 6538, 24 h, read-out: DIZ
# Aspergillus flavus [28] = assay: Antifungal activity against Aspergillus flavus after 72 hrs by agar well diffusion method
# Rhizoctonia solani [29] = assay: Antifungal activity against Rhizoctonia solani at 50 ug/ml after 72 hrs by agar well diffusion method; conditions: read-out: DIZ
# Bacillus subtilis [30] = assay: Antibacterial activity against Bacillus subtilis at 500 ug/ml after 24 hrs by agar well diffusion method; conditions: read-out: DIZ
# Aspergillus flavus [31] = assay: Antifungal activity against Aspergillus flavus at 100 ug/ml after 72 hrs by agar well diffusion method; conditions: read-out: DIZ
# Bacillus subtilis [32] = assay: Antibacterial activity against Bacillus subtilis at 200 ug/ml after 24 hrs by agar well diffusion method; conditions: read-out: DIZ
# Escherichia coli [33] = assay: Antibacterial activity against Escherichia coli ATCC 8739 at 100 ug/ml after 24 hrs by agar well diffusion method; conditions: ATCC 8739, 24 h, read-out: DIZ
# Rhizoctonia solani [34] = assay: Antifungal activity against Rhizoctonia solani at 200 ug/ml after 72 hrs by agar well diffusion method; conditions: read-out: DIZ
# Fusarium oxysporum [35] = assay: Antifungal activity against Fusarium oxysporum at 500 ug/ml after 72 hrs by agar well diffusion method; conditions: read-out: DIZ
# Rhizoctonia solani [36] = assay: Antifungal activity against Rhizoctonia solani at 500 ug/ml after 72 hrs by agar well diffusion method; conditions: read-out: DIZ
# Bacillus subtilis [37] = assay: Antibacterial activity against Bacillus subtilis at 100 ug/ml after 24 hrs by agar well diffusion method; conditions: read-out: DIZ
# Rhizoctonia solani [38] = assay: Antifungal activity against Rhizoctonia solani at 300 ug/ml after 72 hrs by agar well diffusion method; conditions: read-out: DIZ
# Aspergillus flavus [39] = assay: Antifungal activity against Aspergillus flavus at 300 ug/ml after 72 hrs by agar well diffusion method; conditions: read-out: DIZ
# Aspergillus niger [40] = assay: Antifungal activity against Aspergillus niger at 50 ug/ml after 72 hrs by agar well diffusion method; conditions: read-out: DIZ
# Klebsiella pneumoniae [41] = assay: Antibacterial activity against Klebsiella pneumoniae at 300 ug/ml after 24 hrs by agar well diffusion method; conditions: read-out: DIZ
# Escherichia coli [42] = assay: Antibacterial activity against Escherichia coli ATCC 8739 after 24 hrs by agar well diffusion method; conditions: ATCC 8739, 24 h
# Bacillus subtilis [43] = assay: Antibacterial activity against Bacillus subtilis at 300 ug/ml after 24 hrs by agar well diffusion method; conditions: read-out: DIZ
# Escherichia coli [44] = assay: Antibacterial activity against Escherichia coli ATCC 8739 at 200 ug/ml after 24 hrs by agar well diffusion method; conditions: ATCC 8739, 24 h, read-out: DIZ
# Aspergillus flavus [45] = assay: Antifungal activity against Aspergillus flavus at 50 ug/ml after 72 hrs by agar well diffusion method; conditions: read-out: DIZ
# Aspergillus niger [46] = assay: Antifungal activity against Aspergillus niger at 200 ug/ml after 72 hrs by agar well diffusion method; conditions: read-out: DIZ
# Aspergillus flavus [47] = assay: Antifungal activity against Aspergillus flavus at 500 ug/ml after 72 hrs by agar well diffusion method; conditions: read-out: DIZ
# Staphylococcus aureus [48] = assay: Antibacterial activity against Staphylococcus aureus ATCC 6538 at 300 ug/ml after 24 hrs by agar well diffusion method; conditions: ATCC 6538, 24 h, read-out: DIZ
smiles,measurement,setting,value
CC1(C)OC(=O)C(=Cc2c[nH]c3ccccc23)C(=O)O1,MIC,Klebsiella pneumoniae [1],10 µg/mL
same,zone of inhibition at 300 µg/mL,Aspergillus niger [2],19 mm
same,zone of inhibition at 100 µg/mL,Aspergillus niger [3],11 mm
same,zone of inhibition at 50 µg/mL,Klebsiella pneumoniae [4],11 mm
same,MIC,Aspergillus niger [5],30 µg/mL
same,zone of inhibition at 200 µg/mL,Fusarium oxysporum [6],17 mm
same,zone of inhibition at 200 µg/mL,Klebsiella pneumoniae [7],20 mm
same,MIC,Staphylococcus aureus [8],20 µg/mL
same,zone of inhibition at 100 µg/mL,Fusarium oxysporum [9],14 mm
same,zone of inhibition at 500 µg/mL,Staphylococcus aureus [10],27 mm
same,zone of inhibition at 50 µg/mL,Staphylococcus aureus [11],8 mm
same,zone of inhibition at 500 µg/mL,Klebsiella pneumoniae [12],33 mm
same,zone of inhibition at 100 µg/mL,Staphylococcus aureus [13],12 mm
same,zone of inhibition at 50 µg/mL,Escherichia coli [14],10 mm
same,zone of inhibition at 50 µg/mL,Bacillus subtilis [15],6 mm
same,MIC,Fusarium oxysporum [16],25 µg/mL
same,MIC,Rhizoctonia solani [17],25 µg/mL
same,zone of inhibition at 500 µg/mL,Escherichia coli [18],32 mm
same,zone of inhibition at 50 µg/mL,Fusarium oxysporum [19],10 mm
same,zone of inhibition at 100 µg/mL,Klebsiella pneumoniae [20],16 mm
same,MIC,Bacillus subtilis [21],20 µg/mL
same,zone of inhibition at 100 µg/mL,Rhizoctonia solani [22],15 mm
same,zone of inhibition at 300 µg/mL,Fusarium oxysporum [23],21 mm
same,zone of inhibition at 200 µg/mL,Aspergillus flavus [24],13 mm
same,zone of inhibition at 500 µg/mL,Aspergillus niger [25],26 mm
same,zone of inhibition at 300 µg/mL,Escherichia coli [26],22 mm
same,zone of inhibition at 200 µg/mL,Staphylococcus aureus [27],16 mm
same,MIC,Aspergillus flavus [28],35 µg/mL
same,zone of inhibition at 50 µg/mL,Rhizoctonia solani [29],10 mm
same,zone of inhibition at 500 µg/mL,Bacillus subtilis [30],25 mm
same,zone of inhibition at 100 µg/mL,Aspergillus flavus [31],10 mm
same,zone of inhibition at 200 µg/mL,Bacillus subtilis [32],14 mm
same,zone of inhibition at 100 µg/mL,Escherichia coli [33],15 mm
same,zone of inhibition at 200 µg/mL,Rhizoctonia solani [34],19 mm
same,zone of inhibition at 500 µg/mL,Fusarium oxysporum [35],31 mm
same,zone of inhibition at 500 µg/mL,Rhizoctonia solani [36],32 mm
same,zone of inhibition at 100 µg/mL,Bacillus subtilis [37],11 mm
same,zone of inhibition at 300 µg/mL,Rhizoctonia solani [38],24 mm
same,zone of inhibition at 300 µg/mL,Aspergillus flavus [39],17 mm
same,zone of inhibition at 50 µg/mL,Aspergillus niger [40],7 mm
same,zone of inhibition at 300 µg/mL,Klebsiella pneumoniae [41],25 mm
same,MIC,Escherichia coli [42],10 µg/mL
same,zone of inhibition at 300 µg/mL,Bacillus subtilis [43],17 mm
same,zone of inhibition at 200 µg/mL,Escherichia coli [44],18 mm
same,zone of inhibition at 50 µg/mL,Aspergillus flavus [45],5 mm
same,zone of inhibition at 200 µg/mL,Aspergillus niger [46],15 mm
same,zone of inhibition at 500 µg/mL,Aspergillus flavus [47],24 mm
same,zone of inhibition at 300 µg/mL,Staphylococcus aureus [48],20 mm
